Experimental data taken from patent US4390613A, “Diffusion transfer photographic system utilizing substituted phenylmercaptoazoles” (Polaroid Corporation, priority 1981, dated 1983).
Like-named read-outs stand apart in the source and are kept apart here.

Legend:
[1] = silver salt, pH 7; Z. C. H. Tan, Photogr. Sci. Eng. 19, 17 (1975); cited from earlier work
[2] = Solubility product of the silver salts (Table II); format: physicochemical; conditions: for Ksp: silver salt
Description: Solubility product measurements were made for the silver salt of phenylmercaptotetrazole (PMT) at pH 13.5 and for the silver salt of compound II at pH 7 and pH 13.5 (above and below the pka of the oxime substituent).

[3] = Solubility of silver salts in presence of excess anion (Table III); format: physicochemical
Method: The solubilities of the silver salts of PMT and compound II in the presence of excess amounts of their anions were measured at pH 7.0 and 13.5. Each solution was 4×10^-3 molar in silver. The results are shown in Table III wherein the solubility data is expressed in μmoles/liter of total silver.

[4] = Ionization and stability in aqueous alkaline processing composition; format: physicochemical
Description: However, it has been shown by experimentation that incorporating compound XI in a film unit according to the invention will provide advantageous results. Thus, it would appear that compound XI undergoes a change in aqueous alkaline processing composition and that the acetyl substituent is a precursor of a group which has the requisite properties described above which provide the desired results. […] It is therefore preferred to incorporate the compound elsewhere in the film unit, for example, in the photosensitive element.

Row | Compound | Ksp [1] | Ksp ([2]; pH 13.5) | silver solvent behavior at high pH [3] | stability in aqueous alkaline processing composition ([4]; about a week or more in processing composition) | ionization of acetyl group to an anion ([4]; aqueous alkaline photographic processing composition) | effect of pH / ionization on solubility of the silver salt ([2]; pH 7 vs pH 13.5) | Ksp ([2]; pH 7)
1 | Sc1nnnn1-c1ccccc1 [PMT, 1-phenyl-5-mercaptotetrazole, reference compound] | 3 × 10^-16 | 4 × 10^-16 | PMT is not | – | – | – | –
2 | CC(=O)c1ccc(-n2nnnc2S)cc1 [XI] | – | – | – | long term instability characteristics | does not ionize to any appreciable extent | – | –
3 | CC(=NO)c1ccc(-n2nnnc2S)cc1 [Compound II] | – | 2 × 10^-15 | weak to moderate silver solvent at high pH | – | – | increased the solubility of the silver salt of compound II by an order of magnitude | ~ 1 × 10^-16
